The text below walks through data of patent US20250214951A1, “3-PHENYLISOXAZOLE DERIVATIVE, AND PHARMACEUTICAL COMPOSITION FOR PREVENTING OR TREATING EYE DISEASE, CONTAINING SAME AS ACTIVE INGREDIENT” (VASTHERA CO., LTD., priority 2022, published 2025).

Common to all, as to type: cell-based, human
The test system of one data set is p62 protein. Description: Restoration of autophagy inhibited by A2E and blue light (p62 Western). The following applies: ARPE-19, A2E accumulation and blue light; FIG. 10. An excerpt: Therefore, it was confirmed whether the compound of the present invention can restore autophagy inhibited by A2E and blue light.
During the autophagosome formation process, p62 specifically binds to a substance to be degraded and simultaneously binds to LC3 protein to form an autophagosome. When autophagy is inhibited, aggregates composed of p62 and ubiquitinated proteins are formed and p62 accumulates in the cell. Therefore, by measuring the change in the level of intracellular p62, the improvement effect of the compound of the present invention on autophagy inhibited by A2E and blue light can be evaluated, and the experiment was conducted as follows.
Specifically, ARPE-19 cells were seeded into 6-well plates at a concentration of 2×10^4 cells/well and cultured for 24 hours. To induce A2E accumulation in the ARPE-19 cell line, the cells were treated with A2E three times at a concentration of 25 μM at 48-hour intervals. 24 hours after the final A2E treatment, the cells were treated with example 17 compound twice at 24-hour intervals each. […] The amount of intracellular p62 was measured by Western immunoblotting using an anti-p62 antibody (Santa Cruz, TX, USA). The amount of intracellular β-actin was measured in the same manner using anti-β-actin antibody (Santa Cruz) and used as a control.

Another data set has as its system LC3-II. Description: Autophagy activation in A2E-accumulated ARPE-19 (LC3-II Western). The note with it: 25, 50, 100 μM, 12 h; FIG. 8. The procedure: A2E is known to inhibit intracellular autophagy. Therefore, it was measured whether example 17 compound of the present invention also increases autophagy in ARPE-19 cell lines accumulating A2E.
Specifically, ARPE-19 cell lines were dispensed into 6-well plates at a concentration of 1×10^5 cells/well and cultured for 24 hours. The cells were treated with A2E at a concentration of […] for 24 hours. Thereafter, the cells were treated with example 17 compound of the present invention at concentrations of 25, 50, and 100 μM for 12 hours each. Thereafter, cell lysate preparation and measurement of LC3-II by Western immunoblotting were performed in the same manner as in Experimental Example 7, and the results are shown in FIG. 8.

For a further data set, the system named is A2E-BDP in ARPE-19 cells. Description: Removal of A2E-BDP by concentration, fluorescence and phase contrast microscopy. The procedure:
ARPE-19 cell line was dispensed into a 24-well plate at a concentration of 4×10^4 cells/well and cultured for 24 hours. In order to induce A2E-BDP accumulation in ARPE-19 cell line, the cells were treated with […] of 10 μM for 24 hours. The A2E-BDP-containing ARPE-19 cells were treated with compound 17 (10, 25, 50 μM) for 24 hours. The level of A2E-BDP in each cell was measured as a fluorescence image at 510 nm using a Nikon Eclipse Ti—U fluorescence microscope (Tokyo, Japan). In addition, the change in cell number according to compound treatment was observed using a general phase contrast microscope, and the results are shown in FIG. 1. Meanwhile, lutein was used as a control substance.

Data set [1] deals with p62 protein phosphorylated at serine 349 (p-p62 (S349)). Description: Autophagy activation by increase of p-p62 (S349), Western immunoblotting. The following applies: indicated concentrations; FIG. 14. The protocol: The cells were treated with the test compounds at the indicated concentrations, and the autophagy activation effect through the increase of p62 protein (p-p62 (S349)) phosphorylated at serine 349 residue was measured by Western immunoblotting using an anti-p-p62 antibody, and the results are shown in FIG. 14. The increase in the intracellular P-p62 ([…]) level is one of the major indicators of autophagy activation.
(A western blot detects proteins with antibodies after separation by electrophoresis.)

In the next data set the test system is NF-κB (p65). Description: Inhibition of blue light-induced NF-κB activation (p65 Western immunoblotting). The note with it: A2E and blue light; 10 and 25 μM; FIG. 4. An excerpt:
When cells are stimulated by external pathogenic molecules (PAMPs), NF-κB dimers (p50-p65 dimers) are separated from IκB and activated. The separated NF-κB dimers pass through the nuclear membrane and enter the nucleus, where they bind to DNA and activate gene transcription, indicating the activation of NF-κB. Therefore, the inhibitory effect of the compound of the present invention on NF-κB activation can be evaluated by measuring changes in the cytoplasmic or nuclear levels of p65. The experiment was conducted as follows.
ARPE-19 cells were seeded in 6-well plates at a concentration of 2×10^4 cells/well and cultured for 24 hours. In order to induce A2E accumulation in the ARPE-19 cell line, cells were treated with A2E three times at a concentration of 25 μM at 48-hour intervals. 24 hours after the final A2E treatment, cells were treated with compound 17 of the present invention twice at concentrations of 10 and 25 μM at 24-hour intervals, respectively. […] The level of p65 was measured by Western immunoblotting using anti-p65 antibody (Cell Signaling Technology, MA, USA). The cytoplasmic and nuclear fractions were measured by Western immunoblotting in the same manner as above using antibodies against α-tubulin (Cell Signaling Technology) and histone H3 (Abcam, Cambridge, UK) as internal controls, respectively.

For `C=CCOCc1cc(-c2cc(CC=C)ccc2OC)no1` [Example 17, 3-(5-allyl-2-methoxyphenyl)-5-((allyloxy)methyl)isoxazole], in the data set with p62 protein, the p62 protein concentration entry is reported as “decreased in a concentration-dependent manner”. Further, in the data set on LC3-II, the “LC3-II level in A2E-accumulated ARPE-19” value is “an increase in LC3-II”. In the data set on A2E-BDP in ARPE-19 cells (10, 25, 50 μM, 24 h), the “cytotoxicity against ARPE-19 cells (cell number, phase contrast microscope)” value was “no cytotoxicity”. The “A2E-BDP fluorescence intensity (fluorescence microscope)” value in the data set with A2E-BDP in ARPE-19 cells (ARPE-19 with A2E-BDP, 10, 25, 50 μM, 24 h, FIG. 1) is recorded as “a decrease in fluorescence intensity was observed in a concentration-dependent manner”. In the data set on A2E-BDP in ARPE-19 cells (FIG. 1), the “A2E-BDP removal ability compared with lutein” value is “better A2E-BDP removal ability than lutein”. In addition, the “autophagy activation through increase of p-p62 (S349)” value in data set [1] is “activated autophagy in a concentration-dependent manner”. The “activation of NF-κB (movement of p65 into the nucleus)” value in the data set with NF-κB (p65) is listed as “activation of NF-κB was inhibited”.
